{"source": "patent US20220193028A1", "about": "“THERAPEUTIC COMBINATIONS, LIQUID PHARMACEUTICAL COMPOSITIONS, KITS FOR THEIR PREPARATION, AND METHODS OF THEIR USE” (priority 2019, published 2022)", "origin": "cited, not measured here", "molecular_target": "AMPA receptor", "settings": "non-competitive selective allosteric modulator of the AMPA receptor; read-out: IC50 (block of glutamate induced currents)"}
{"smiles": "N#Cc1ccccc1-c1cc(-c2ccccn2)cn(-c2ccccc2)c1=O", "note": "[perampanel]", "values": [{"measurement": "IC50", "value": "~0.56", "unit": "µM"}]}
